# Experimental data reported in PubChem BioAssay AID1963870 (Molecular Pharmacology Branch, DTP, NCI, 2024).
# Values joined by “and” are separate entries in the source; they are usually repeats but may differ in a detail not shown here. Equal values may be shown once. Active and inactive are the calls of the source. Rule for the calls: active = viability on the fitted dose curve at most 10% of control; inactive = the rest.
# System: 292921-168-R-J2-PDC KRAS tumor spheroid viability
# Assay: Anticancer human tumor 292921-168-R-J2-PDC patient-derived pancreatic carcinoma cell line growth inhibition [KRAS2]
# Details: spheroids with HUVEC and MSC; for viability, T/C: stronger effect = lower value
# How it was run: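 KRAS-mutant tumor cells were grown as spheroids with HUVEC endothelial cells and human MSCs as stroma. Targeted agents were tested alone and with KRAS pathway inhibitors. Doses started at or near clinical Cmax, or 10 microM, descending half-log.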
# [1] = curve of first compound, second compound 0.1 µM
# [2] = curve of first compound, second compound 0.316 µM
# [3] = curve of first compound, second compound 1 µM
# [4] = curve of first compound, second compound 3.16 µM
# [5] = second compound 0.1 µM, first compound 0.0316 µM
# [6] = second compound 0.1 µM, first compound 0.1 µM
# [7] = second compound 0.1 µM, first compound 0.316 µM
# [8] = second compound 0.1 µM, first compound 1 µM
# [9] = second compound 0.1 µM, first compound 3.16 µM
# [10] = second compound 0.1 µM, first compound 10 µM
# [11] = second compound 0.316 µM, first compound 0.0316 µM
# [12] = second compound 0.316 µM, first compound 0.1 µM
# [13] = second compound 0.316 µM, first compound 0.316 µM
# [14] = second compound 0.316 µM, first compound 1 µM
# [15] = second compound 0.316 µM, first compound 3.16 µM
# [16] = second compound 0.316 µM, first compound 10 µM
# [17] = second compound 1 µM, first compound 0.0316 µM
# [18] = second compound 1 µM, first compound 0.1 µM
# [19] = second compound 1 µM, first compound 0.316 µM
# [20] = second compound 1 µM, first compound 1 µM
# [21] = second compound 1 µM, first compound 3.16 µM
# [22] = second compound 1 µM, first compound 10 µM
# [23] = second compound 3.16 µM, first compound 0.0316 µM
# [24] = second compound 3.16 µM, first compound 0.1 µM
# [25] = second compound 3.16 µM, first compound 0.316 µM
# [26] = second compound 3.16 µM, first compound 1 µM
# [27] = second compound 3.16 µM, first compound 3.16 µM
# [28] = second compound 3.16 µM, first compound 10 µM
# [29] = curve of first compound, second compound 10 µM
# [30] = second compound 10 µM, first compound 0.0316 µM
# [31] = second compound 10 µM, first compound 0.1 µM
# [32] = second compound 10 µM, first compound 0.316 µM
# [33] = second compound 10 µM, first compound 1 µM
# [34] = second compound 10 µM, first compound 3.16 µM
# [35] = second compound 10 µM, first compound 10 µM
# 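Throughout, for IC50: drug exposure lasted seven days after spheroids formed for three days.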
# 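Throughout, for viability, T/C: drug exposure lasted seven days after spheroids formed for three days; percent of DMSO vehicle control viability which is 100%.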
structure (smiles),measurement,setting,value
COC(=O)c1ccc2c(C(=Nc3ccc(N(C)C(=O)CN4CCN(C)CC4)cc3)c3ccccc3)c(O)[nH]c2c1 + C=CC(=O)N1CCN(c2nc(OCC3CCCN3C)nc3c2CCN(c2cccc4cccc(C)c24)C3)CC1CC#N,IC50,"curve of first compound, second compound 0.0316 µM",< 31.6 nM
same,IC50,[1],< 31.6 nM
same,IC50,[2],< 31.6 nM
same,IC50,[3],< 31.6 nM
same,IC50,[4],< 31.6 nM
same,"viability, T/C","second compound 0.0316 µM, first compound 0.0316 µM",33%
same,"viability, T/C","second compound 0.0316 µM, first compound 0.1 µM",26.1%
same,"viability, T/C","second compound 0.0316 µM, first compound 0.316 µM",16.8%
same,"viability, T/C","second compound 0.0316 µM, first compound 1 µM",10.2%
same,"viability, T/C","second compound 0.0316 µM, first compound 3.16 µM",3.16%
same,"viability, T/C","second compound 0.0316 µM, first compound 10 µM",0.05%
same,"viability, T/C",[5],26.5%
same,"viability, T/C",[6],22.9%
same,"viability, T/C",[7],15.5%
same,"viability, T/C",[8],9.38%
same,"viability, T/C",[9],5.32%
same,"viability, T/C",[10],0.11%
same,"viability, T/C",[11],23.6%
same,"viability, T/C",[12],19.6%
same,"viability, T/C",[13],13.4%
same,"viability, T/C",[14],7.92%
same,"viability, T/C",[15],2.44%
same,"viability, T/C",[16],0.07%
same,"viability, T/C",[17],16.7%
same,"viability, T/C",[18],16.4%
same,"viability, T/C",[19],9.48%
same,"viability, T/C",[20],6.16%
same,"viability, T/C",[21],0.43%
same,"viability, T/C",[22],0.03%
same,"viability, T/C",[23],0.16%
same,"viability, T/C",[24],0.08%
same,"viability, T/C",[25],0.07%
same,"viability, T/C",[26],0.05%
same,"viability, T/C",[27],0.04%
same,"viability, T/C",[28],0.05%
CC(C)NCC(C(=O)N1CCN(c2ncnc3c2C(C)CC3O)CC1)c1ccc(Cl)cc1 (configuration not stated),"viability, T/C",compound 0.0316 µM,93.8% [middle of 5 runs]
same,"viability, T/C",compound 0.1 µM,88.5% [middle of 5 runs]
same,"viability, T/C",compound 0.316 µM,83.5% [middle of 5 runs]
same,"viability, T/C",compound 1 µM,83.1% [middle of 5 runs]
same,"viability, T/C",compound 3.16 µM,76.5% [middle of 5 runs]
same,"viability, T/C",compound 10 µM,51.1% [middle of 5 runs]
same,IC50,curve of compound,> 10000 nM and 9740 nM
O=C(c1cc(Cc2n[nH]c(=O)c3ccccc23)ccc1F)N1CCN(C(=O)C2CC2)CC1 + CC1OCC2(CCN(c3cnc(Sc4ccnc(N)c4Cl)c(N)n3)CC2)C1N,IC50,[1],7220 nM
same,IC50,[2],5520 nM
same,IC50,[3],8780 nM
same,IC50,[4],< 31.6 nM
same,IC50,[29],< 31.6 nM
same,"viability, T/C",[5],90.5%
same,"viability, T/C",[6],82.3%
same,"viability, T/C",[7],81.2%
same,"viability, T/C",[8],90.5%
same,"viability, T/C",[9],74.3%
same,"viability, T/C",[10],40.5%
same,"viability, T/C",[11],76.5%
same,"viability, T/C",[12],63.6%
same,"viability, T/C",[13],63.8%
same,"viability, T/C",[14],78%
same,"viability, T/C",[15],62.5%
same,"viability, T/C",[16],34.6%
same,"viability, T/C",[17],138%
same,"viability, T/C",[18],120%
same,"viability, T/C",[19],113%
same,"viability, T/C",[20],120%
same,"viability, T/C",[21],83.9%
same,"viability, T/C",[22],45.1%
same,"viability, T/C",[23],48%
same,"viability, T/C",[24],41.3%
same,"viability, T/C",[25],50.7%
same,"viability, T/C",[26],45.4%
same,"viability, T/C",[27],39.7%
same,"viability, T/C",[28],30.6%
same,"viability, T/C",[30],50.8%
same,"viability, T/C",[31],44.6%
same,outcome,[32],inactive
same,"viability, T/C",[33],38.6%
same,"viability, T/C",[34],34.4%
same,"viability, T/C",[35],27.6%
COc1cc(Nc2ncc3c(n2)-c2ccc(Cl)cc2C(c2c(F)cccc2OC)=NC3)ccc1C(=O)O + COc1cc2nc(C)nc(NC(C)c3cc(N)cc(C(F)(F)F)c3)c2cc1OC1CCOC1,IC50,[1],< 31.6 nM
same,IC50,[2],< 31.6 nM
same,IC50,[3],< 31.6 nM
same,IC50,[4],< 31.6 nM
same,IC50,[29],< 31.6 nM
same,"viability, T/C",[5],28.8%
same,"viability, T/C",[6],23.7%
same,"viability, T/C",[7],27.9%
same,"viability, T/C",[8],25.8%
same,"viability, T/C",[9],19.4%
same,"viability, T/C",[10],16.9%
same,"viability, T/C",[11],26.3%
same,"viability, T/C",[12],21.9%
same,"viability, T/C",[13],27.4%
same,"viability, T/C",[14],22.1%
same,"viability, T/C",[15],22.3%
same,"viability, T/C",[16],14.9%
same,"viability, T/C",[17],25%
same,"viability, T/C",[18],24.5%
same,"viability, T/C",[19],25.6%
same,"viability, T/C",[20],23.4%
same,"viability, T/C",[21],18.5%
same,"viability, T/C",[22],13.6%
same,"viability, T/C",[23],23.8%
same,"viability, T/C",[24],20.5%
same,"viability, T/C",[25],20.8%
same,"viability, T/C",[26],22.1%
same,"viability, T/C",[27],18.5%
same,"viability, T/C",[28],14%
same,"viability, T/C",[30],15.1%
same,"viability, T/C",[31],11.2%
same,"viability, T/C",[32],11.6%
same,"viability, T/C",[33],11.9%
same,"viability, T/C",[34],13.6%
same,"viability, T/C",[35],12.3%
Cn1ncnc1[C@H]1c2n[nH]c(=O)c3cc(F)cc(c23)N[C@@H]1c1ccc(F)cc1 + C=CC(=O)N1CCN(c2nc(=O)n(-c3c(C)ccnc3C(C)C)c3nc(-c4c(O)cccc4F)c(F)cc23)C(C)C1,IC50,[1],> 100 nM
same,IC50,[2],> 100 nM
same,IC50,[3],> 100 nM
same,IC50,[4],89.7 nM
same,IC50,[29],< 0.316 nM
same,"viability, T/C","second compound 0.1 µM, first compound 0.000316 µM",103%
same,"viability, T/C","second compound 0.1 µM, first compound 0.001 µM",104%
same,"viability, T/C","second compound 0.1 µM, first compound 0.00316 µM",105%
same,"viability, T/C","second compound 0.1 µM, first compound 0.01 µM",103%
same,"viability, T/C",[5],87.5%
same,"viability, T/C",[6],78.5%
same,"viability, T/C","second compound 0.316 µM, first compound 0.000316 µM",113%
same,"viability, T/C","second compound 0.316 µM, first compound 0.001 µM",109%
same,"viability, T/C","second compound 0.316 µM, first compound 0.00316 µM",105%
same,"viability, T/C","second compound 0.316 µM, first compound 0.01 µM",97.6%
same,"viability, T/C",[11],97.7%
same,"viability, T/C",[12],88.4%
same,"viability, T/C","second compound 1 µM, first compound 0.000316 µM",106%
same,"viability, T/C","second compound 1 µM, first compound 0.001 µM",97.3%
same,"viability, T/C","second compound 1 µM, first compound 0.00316 µM",94.9%
same,"viability, T/C","second compound 1 µM, first compound 0.01 µM",94.8%
same,"viability, T/C",[17],83.2%
same,"viability, T/C",[18],73.3%
same,"viability, T/C","second compound 3.16 µM, first compound 0.000316 µM",74.3%
same,"viability, T/C","second compound 3.16 µM, first compound 0.001 µM",64.2%
same,"viability, T/C","second compound 3.16 µM, first compound 0.00316 µM",65.1%
same,"viability, T/C","second compound 3.16 µM, first compound 0.01 µM",65.3%
same,"viability, T/C",[23],54.3%
same,"viability, T/C",[24],49.2%
same,"viability, T/C","second compound 10 µM, first compound 0.000316 µM",18.7%
same,"viability, T/C","second compound 10 µM, first compound 0.001 µM",20.8%
same,"viability, T/C","second compound 10 µM, first compound 0.00316 µM",20.6%
same,"viability, T/C","second compound 10 µM, first compound 0.01 µM",21.9%
same,"viability, T/C",[30],21.3%
same,"viability, T/C",[31],18.6%
